Measured values reported in US6863907B2, “Antiallergic composition and antipruritic composition” (Sunstar, Inc., priority 1999, dated 2005).

System: human basophilic leukemia cell line KU812
Assay: Histamine release suppression test using human basophilic leukemia cell line KU812
Assay type: cell-based
Conditions: KU812 cells, final concentration 0.01%, CRA-1 15 μg/ml stimulation, N=4
Protocol: Histamine Release Suppression Test Using Human Basophilic Leukemia Cell Line KU812
A human basophilic leukemia cell line KU812 was grown in a RPMI 1640 medium (GIBCO) supplemented with 10% fetal bovine serum (treated at 56° C. for 30 min), at 37° C. in 5% CO2. The medium was washed by addition of a histamine release buffer (IMMUNOTECH) followed by centrifugation (1500 rpm, 5 min, 4° C.) and removal of the supernatant. The washing procedure was carried out twice. Then, a histamine release buffer was added to prepare a cell suspension having a cell density of 10^5 cells/ml. […] After centrifugation (2000 rpm, 10 min, 4° C.), the histamine content of the supernatant was measured using a Histamine EIA Kit (IMMUNOTECH) (N=4). Then, the mean and standard deviation of the measured values were obtained from the calibration curve, and the histamine release suppression rate (%) was calculated according to the following equation: [formula] wherein: • A represents the histamine content (n M) released from cells treated with the test substance/reference substance and CRA-1; • B represents the histamine content (n M) released from untreated cells; and • C represents the histamine content (n M) released from cells treated with CRA-1 only.

## CNC[C@H](O)c1ccc(O)c(O)c1 [epinephrine]
  histamine release suppression rate: 52±16%
